Key:
[1] = tested on: switchgrass cultivars, Alamo and Kanlow; conditions: pre-plant application; cited from earlier work
switchgrass stands = conditions: in vivo; cited from earlier work
Cycle 1 switchgrass = experiment: Field emergence: seedlings surviving imazapic application; format: in vivo, Panicum virgatum; conditions: 14 oz/A
Experimental: (§1) Plants were seeded in July and August of 2014 and during May of 2015. Data presented in Table 4 indicates 2014 testing at three locations (Brooksville, Newton, and Starkville). At all locations, PanIR seedling numbers exceeded all other generations of selection as well as the resistant check (indiangrass).

Rapid Germ Switchgrass = experiment: as above; format: in vivo, Panicum virgatum; conditions: 14 oz/A
Experimental: as §1

[2] = tested on: PanIR (Cycle 3) switchgrass; experiment: as above; format: in vivo, Panicum virgatum; conditions: 14 oz/A
Experimental: as §1

Cycle 2 switchgrass = experiment: as above; format: in vivo, Panicum virgatum; conditions: 14 oz/A
Experimental: as §1

[3] = tested on: Alamo (Cycle 0) switchgrass; experiment: as above; format: in vivo, Panicum virgatum; conditions: 14 oz/A
Experimental: as §1

[4] = tested on: Indiangrass (resistant check); experiment: as above; format: in vivo, Sorghastrum nutans; conditions: 14 oz/A
Experimental: as §1

[5] = tested on: Alamo switchgrass seedlings (Cycle0); experiment: Herbicide screening of seedlings, Zero: First Generation Selection; format: in vivo, Panicum virgatum
Experimental: Selection for herbicide resistance was conducted using methods similar to the study performed by Bahler and others (1983). Heavy duty plastic and metal trays measuring 51.5 cm×36.5 cm were used to hold the germinating seedlings during growth and also allowed for easy maintenance and efficient application of herbicide. The testing was conducted in a greenhouse that maintained a nightly temperature of 20° C. and a daily temperature of 30° C. Before the autumnal equinox, day length was not supplemented for the experiment. After the equinox, light was extended to 16 hrs. Day length is a concern due to switchgrass' photoperiodic nature. Eight trays represent a replicate, which were repeated over time. Each tray was filled with autoclaved field soil approximately ¾ full. A 2.5 cm×30.5 cm piece of PVC pipe was used to form ten micro-furrows spaced at 5 cm within each tray. Nine of the ten rows were planted with approximately […] Alamo switchgrass seed (Sharp Brothers, Healy, Kans.). The remaining, randomly selected row was planted with 250 indiangrass seed (MSU 3rd cycle of selection for precocious germination). One hundred (100) seed were evenly dispersed within each furrow of the flat; flats were top-dressed with 0.63 cm of autoclaved field soil. The trays were watered on a daily basis. Emergence of the seedlings usually took place 6-8 days after planting. Once the seedlings broke the soil surface, they were allowed to grow to the three leaf stage (approximately 14 days). A calibrated spray chamber was used to apply the herbicide to the seedlings in the trays. For imazapic, the recommended rate is 140 g a.i./ha on mixed grassland, applied with less than 93.54 liters of water per hectare, sprayed at a constant pressure of 40 psi. A spray adjuvant (nonionic surfactant) was added to the formulation. In order to achieve the correct amounts for the spray mixture, the following calculations were made: (8 fl.oz./1 ac.)×(1 ac./15 gal.sol.)×(1 gal./128 fl.oz.sol.)×(20 f.oz.sol./1 bottle)×(3785 ml/128 fl.oz.)=2.46 ml/1 bottle H2O (3-1) The formulation requires 2.46 mls of Plateau®, 1.5 mls of surfactant, and 556 mls of water to fill the spray bottle for the chamber. The trays were placed two at a time in the chamber and sprayed at a fixed speed ([…]) to ensure proper dosage. A dose response curve was conducted on the sixth trial to determine the rate of Plateau® that would kill a majority of the switchgrass seedlings (Table 1).
The upper limit was 245 g a.i./ha, which exceeded the labeled rate for big bluestem and indiangrass. […] Eight trays represented the curve and were assessed on the amount of discoloration relative to the unsprayed tray. […]

[6] = tested on: Cycle1 switchgrass seedlings; experiment: Herbicide screening of seedlings, First: Second Generation Selection; format: in vivo
Experimental: Subsequent testing of the first generation seed/seedlings was conducted in the same manner as the initial herbicide screenings. The planting of the trays consisted of 8 rows of the first generation, one row Alamo, and one row indiangrass (tolerant control).
Seedlings of Cycle1 (315,360) were screened for tolerance to 14 oz/A (2×) rate of Plateau®. Ninety-seven (97) survived the initial imazapic application. Sixty-eight (68) succumbed to a second (8 oz/A) application leaving twenty-nine (29) tolerant individuals which were planted in an isolated crossing block at Longview, Miss. (33.404999, −88.938283) as Cycle2.

[7] = tested on: Alamo (Cycle0) lowland switchgrass; experiment: Agar/growth chamber germination on water agar + imazapic; format: in vivo, Panicum virgatum; conditions: controlled conditions
Excerpt: (§2) Since field emergence relies on soil tilth, rainfall, planter depth, and a host of other conditions, the inventors opted for a more uniform method of testing resistance: imazapic-dosed water agar. Data from germination under controlled conditions indicated significant progress for resistance to imazapic (Table 3) over three cycles of selection.

PanIR Cycle3 switchgrass = experiment: as above; format: in vivo, Panicum virgatum; conditions: 2.3 times higher rate, controlled conditions
Excerpt: as §2

## CCC(CC)Nc1c([N+](=O)[O-])cc(C)c(C)c1[N+](=O)[O-] [Pendimethalin, pendimethalin]
[1]
  mortality of stands: up to 50%

## CCNc1nc(Cl)nc(NC(C)C)n1 [atrazine]
Switchgrass stands
  effect on switchgrass stands: no deleterious effects

## Cc1cnc(C2=NC(C)(C(C)C)C(=O)N2)c(C(=O)O)c1 (stereo not shown) [imazapic, 5-methyl-2-[4-methyl-5-oxo-4-(propan-2-yl)-4,5-dihydro-1H-imidazol-2-yl]pyridine-3-carboxylic acid]
Cycle 1 switchgrass; Brooksville 2014
  Number of seedlings surviving, 42 days after spraying: 8.25 B seedlings emerged per 30 cm of row
Cycle 1 switchgrass; Brooksville 2015
  Number of seedlings surviving, 42 days after spraying: 19.25 BC seedlings emerged per 30 cm of row
Cycle 1 switchgrass; Newton 2014
  Number of seedlings surviving, 42 days after spraying: 10.25 B seedlings emerged per 30 cm of row
Cycle 1 switchgrass; Starkville 2014
  Number of seedlings surviving, 42 days after spraying: 3.25 C seedlings emerged per 30 cm of row
Cycle 1 switchgrass; Starkville 2015
  Number of seedlings surviving, 42 days after spraying: 2.00 B seedlings emerged per 30 cm of row
Rapid Germ Switchgrass; Brooksville 2014
  Number of seedlings surviving, 42 days after spraying: 2.75 B seedlings emerged per 30 cm of row
Rapid Germ Switchgrass; Brooksville 2015
  Number of seedlings surviving, 42 days after spraying: 0.00 C seedlings emerged per 30 cm of row
Rapid Germ Switchgrass; Newton 2014
  Number of seedlings surviving, 42 days after spraying: 2.00 B seedlings emerged per 30 cm of row
Rapid Germ Switchgrass; Starkville 2014
  Number of seedlings surviving, 42 days after spraying: 2.00 C seedlings emerged per 30 cm of row
Rapid Germ Switchgrass; Starkville 2015
  Number of seedlings surviving, 42 days after spraying: 1.00 B seedlings emerged per 30 cm of row
[2]; Brooksville 2014
  Number of seedlings surviving, 42 days after spraying: 53.00 A seedlings emerged per 30 cm of row
[2]; Brooksville 2015
  Number of seedlings surviving, 42 days after spraying: 115.75 A seedlings emerged per 30 cm of row
[2]; Newton 2014
  Number of seedlings surviving, 42 days after spraying: 43.00 A seedlings emerged per 30 cm of row
[2]; Starkville 2014
  Number of seedlings surviving, 42 days after spraying: 49.50 A seedlings emerged per 30 cm of row
[2]; Starkville 2015
  Number of seedlings surviving, 42 days after spraying: 16.00 A seedlings emerged per 30 cm of row
Cycle 2 switchgrass; Brooksville 2014
  Number of seedlings surviving, 42 days after spraying: 14.25 B seedlings emerged per 30 cm of row
Cycle 2 switchgrass; Brooksville 2015
  Number of seedlings surviving, 42 days after spraying: 18.75 BC seedlings emerged per 30 cm of row
Cycle 2 switchgrass; Newton 2014
  Number of seedlings surviving, 42 days after spraying: 13.00 B seedlings emerged per 30 cm of row
Cycle 2 switchgrass; Starkville 2014
  Number of seedlings surviving, 42 days after spraying: 13.75 BC seedlings emerged per 30 cm of row
Cycle 2 switchgrass; Starkville 2015
  Number of seedlings surviving, 42 days after spraying: 5.67 B seedlings emerged per 30 cm of row
[3]; Brooksville 2014
  Number of seedlings surviving, 42 days after spraying: 2.00 B seedlings emerged per 30 cm of row
[3]; Brooksville 2015
  Number of seedlings surviving, 42 days after spraying: 5.75 BC seedlings emerged per 30 cm of row
[3]; Newton 2014
  Number of seedlings surviving, 42 days after spraying: 6.50 B seedlings emerged per 30 cm of row
[3]; Starkville 2014
  Number of seedlings surviving, 42 days after spraying: 8.25 BC seedlings emerged per 30 cm of row
[3]; Starkville 2015
  Number of seedlings surviving, 42 days after spraying: 1.00 B seedlings emerged per 30 cm of row
[4]; Brooksville 2014
  Number of seedlings surviving, 42 days after spraying: 16.25^†B* seedlings emerged per 30 cm of row
[4]; Brooksville 2015
  Number of seedlings surviving, 42 days after spraying: 24.50^†B* seedlings emerged per 30 cm of row
[4]; Newton 2014
  Number of seedlings surviving, 42 days after spraying: 14.50 B seedlings emerged per 30 cm of row
[4]; Starkville 2014
  Number of seedlings surviving, 42 days after spraying: 19.75 B seedlings emerged per 30 cm of row
[4]; Starkville 2015
  Number of seedlings surviving, 42 days after spraying: 13.33 B seedlings emerged per 30 cm of row
[5]; 364,650 seedlings, 63 survivors, 245 g a.i./ha
  selection intensity: 0.0172%
[5]; Cycle0 (Alamo): 63 individuals selected out of 306,000 seedlings
  selection intensity: 0.0205%
[5]; approximately 364,650 Alamo individuals screened, 8 oz/A
  individuals surviving the initial screening: 78 individuals
[5]; the 78 survivors exposed to one-time application of 14 oz/A
  individuals remaining in base population after second screening: 63 individuals
[6]; Cycle1: 29 seedlings selected out of 36,441 seedlings
  selection intensity: 0.0795%
[6]; seedlings produced from the first cycle polycross of selection
  mortality rate: greater than 75%
[7]
  resistance as percentage of the population: approximately 3%
PanIR Cycle3 switchgrass
  resistance as percentage of the population: about 93.6%
